From paper PMC10514136, “Peptide-conjugated antimiRs improve myotonic dystrophy type 1 phenotypes by promoting endogenous MBNL1 expression” (Molecular Therapy. Nucleic Acids, 2023)

What was measured:
[1] = tested on: DM1 cells; assay: Cell growth inhibition of DM1 cells, gymnosis vs transfection at EC50; assay type: cell-based, human; details: at the EC50 concentration
Description: Immortalized MyoD-inducible (doxycycline) DM1 and control fibroblasts were kindly provided by Dr Furling (Institute of Myology, Paris, France).[38] For the activity assay, cells were seeded in 6-well plates at a density of 8 × 10^4 cells/well and grown in DMEM with 4.5 g/L glucose, 1% P/S, and 10% FBS (Sigma, St. Louis, MO). To transdifferentiate fibroblasts into myoblasts by inducing MyoD expression, the cells were plated in muscle differentiation medium containing DMEM with 4.5 g L^−1 glucose, 1% P/S, 2% horse serum, 1% apo-transferrin (10 mg mL^−1), 0.1% insulin (10 mg mL^−1), and 0.02% doxycycline (10 mg mL^−1). In all cases, the cells were grown at 37°C in a humidified atmosphere containing 5% CO2. Transdifferentiation was induced at day 0, and transfection was performed by lipofection with X-tremeGENE HP (Roche, Basel, Switzerland) 24 h later, with antimiRs and test compounds in the cell medium at different concentrations (from 0.4 nM to 5 μM). […]
Cells seeded at 10^5 cells/mL in 96-well plates were transfected 24 h later with antimiRs as described previously.[20] After 96 h, cell proliferation was measured using the CellTiter 96 AQueous Non-Radioactive Cell Proliferation Assay (Promega, Madison, WI). Absorbance levels were determined using an Infinite M200 PRO plate reader (Tecan, Männedorf, Switzerland) and the TC50 was calculated using non-linear least-squares regression.

[2] = tested on: Mbnl2 mRNA; assay: Mbnl2 transcript levels in muscle by qRT-PCR; assay type: in vivo, mouse; details: HSALR mice, 9.2 mg/kg (mean) i.v. every 2 weeks x3, day 45; gastrocnemius, vs PBS-treated HSALR
Description: Total RNA from murine gastrocnemius and quadriceps muscle was isolated using the miRNeasy Mini Kit (QIAGEN, Hilden, Germany) according to the manufacturer's instructions. One microgram of RNA was digested with DNase I (Invitrogen, Carlsbad, CA) and reverse transcribed with SuperScript II (Invitrogen) using random hexanucleotides. For subsequent PCR reactions, 20 ng of cDNA was used with GoTaq polymerase (Promega). Specific primers were used to analyze the alternative splicing of Nfix, Atp2a1, and Clcn1 in mouse samples (both muscles). Gapdh levels established the endogenous reference levels using 0.2 ng of cDNA. […] PSR index was defined as value%SI minus X %DSI , divided by […] (SI, splicing inclusion of each sample; DSI, disease splicing inclusion; HSI, healthy splicing inclusion). Overall, PSR indicates the amount in both muscles analyzed. […] Commercial TaqMan probes (QIAGEN) were used for mouse (Mbnl1 and Mbnl2; FAM-labeled probes) and reference (GAPDH; MAX-labeled probe) genes. Results were normalized to Gapdh endogenous gene expression. Expression levels were measured using a QuantStudio 5 Real-Time PCR System (Applied Biosystems, Foster City, CA). […] Mouse handling and experimental procedures followed the European law regarding laboratory animal care and experimentation (2003/65/C.E.) and were approved by Conselleria de Agricultura, […] […]

[3] = tested on: HSALR mice; assay: Electromyography, myotonia grade; assay type: in vivo, mouse; details: 9.2 mg/kg (mean) i.v. every 2 weeks x3, 5-point scale, quadriceps of both hind limbs
Text: Mouse handling and experimental procedures followed the European law regarding laboratory animal care and experimentation (2003/65/C.E.) and were approved by Conselleria de Agricultura, […] (reference no. A1539961490857). We used homozygous transgenic HSA^LR (line 20 b) mice,[90] which were kindly provided by Dr Thornton (Rochester, NY) and were housed and bred in our animal facility. […] The mice were randomly allocated to the different treatments as follows: in each cage, each mouse was ear-marked as it was taken out, and each mouse was then assigned to a different treatment. Animals were injected biweekly intravenously with 150 μL of 1× PBS vehicle (controls; […] Mice were sacrificed 45 days after the first injection and the tissues of interest were frozen in liquid nitrogen for the molecular and histological assays. All the mice used in this study ranged from 5 to 5.5 months of age and all were males. Electromyography was performed before the treatment, at the halfway point and time of sacrifice under general anesthesia, as described previously.[18] The determination was performed blindly to eliminate bias.

Substance | toxicity (cell growth inhibition), gymnosis compared with transfection [1] | relative expression of Mbnl2 [2] [fold] | myotonia (electromyography), change at day 45 [3]
9b2KC-23b (antisense GGUAAUCCCUGGCAAUGUGAU; all phosphorodiamidate morpholino (PMO), T or U not given here; Pip9b2KC peptide conjugated) | toxicity was significantly reduced | 2.65 | –
TCTTACCTCAGTTACAATTTA-Pip9b2 [Scramble, reference compound] | – | – | myotonia remained unchanged
